One data set concerns the target T1, IGF1R tyrosine kinase (Homo sapiens, UniProt P08069).
T1 construct: purified recombinant, 6×His- or GST-tagged kinase domain fragments of the corresponding RTKs expressed in baculovirus system; host or cells: baculovirus system
In words: IGF1R tyrosine kinase assay (Kinase-Glo ATP depletion or PT66/PT100 AlphaScreen). The class given is biochemical. To be noted: FIG. 12. On the procedure:
To determine inhibition of several tyrosine kinases, such as IGF1R, InsR, Alk, TrkA and Jak2, kinase assays are conducted using either Kinase-Glo (Promega) or AlphaScreen (PerkinElmer) kinase assay platforms. The Kinase-Glo Luminescent Kinase Assay is a homogeneous method for measuring kinase activity by determining the amount of ATP remaining after a kinase reaction. The luminescent signal is proportional to the amount of ATP and inversely proportional to the amount of kinase activity. Tyrosine kinase PT66 AlphaScreen Assay is a high-sensitivity homogeneous, anti-phosphotyrosine antibody-mediated luminescent proximity method measuring incorporation of phosphate in synthetic poly(Glu-Tyr) substrate. The kinase preparations used consist of purified recombinant, 6×His- or GST-tagged kinase domain fragments of the corresponding RTKs expressed in baculovirus system.
The IGF1R tyrosine kinase is assayed in Kinase-Glo ATP depletion assay using the synthetic polymer poly(Glu-Tyr, 4:1) (Sigma Chemicals) as a phosphoacceptor substrate. Each reaction mixture consists of a total volume of 10 μl and contains 40 ng of the enzyme, 5 μg of poly(Glu-Tyr), 10 μM of ATP and variable concentrations of test compounds. The mixtures also contain 50 mM Tris-HCl, pH 7.5; 5 mM MgCl2; 5 mM MnCl2; 2 mM DTT and 0.01% Tween 20. The reaction mixtures are incubated at 37° C. for 60 minutes and residual concentration of ATP in the mixture is determined by adding luciferase-containing Kinase-Glo (Promega) development reagent and counting luminescence levels using Fusion Universal Microplate Analyzer (PerkinElmer). Tested compounds are dissolved in dimethyl sulfoxide to a stock concentration of 10 mM and are typically evaluated in the assay at eight concentrations in 1 nM to 20 μM range, each in quadruplicate. […] IC50 values are derived by non-linear regression analysis using Prism 3.0 software (Graphpad Software). […]

Data set [1] deals with human myeloma cell lines. The experiment in a line: Effect on cell cycle, PI staining. The class given is cell-based. To be noted: sensitive cell lines; 24 hours; 0.6 μM and 1.8 μM. The protocol: FIG. 6 depicts the effect of compound (2a) (i.e., CRL 103142) and compound (2b) (i.e., CRL 130323) on cell cycle. 4 human myeloma cell lines (3 sensitive and 1 resistant) were incubated for 24 hrs with indicated concentrations of compound (2a) and compound (2b) and effect on cell cycle was assessed by PI staining. Results are reported as percentage of cells in G0-G1 or S phase.
4 human myeloma cell lines (3 sensitive and 1 resistant) were incubated for 24 hours with the compounds of the invention, including compounds (2a) and (2b), with a concentration of 0.6 μM and 1.8 μM and effect on cell cycle was assessed by PI staining. Results are reported as percentage of cells in G0-G1 or S phase.

Data set [2] deals with human myeloma cell lines. The experiment in a line: Effect on apoptosis, PI/annexin V staining. The class given is cell-based. To be noted: sensitive cell lines; 48 or 72 hours; 0.6 μM and 1.8 μM. On the procedure: FIG. 7 depicts the effect of compound (2a) (i.e., CRL 103142) and compound (2b) (i.e., CRL 130323) on apoptosis. 4 human myeloma cell lines (3 sensitive and 1 resistant) were incubated for 48 or 72 hrs with indicated concentrations of compound (2a) and compound (2b) and effect on apoptosis was assessed by PI/annexin V staining. Results are reported as percentage of viable (PI−/annexin V−) cells.
4 human myeloma cell lines (3 sensitive and 1 resistant) were incubated for 48 or 72 hours with the compounds of the invention, including compounds (2a) and (2b), having a concentration of 0.6 μM and 1.8 μM and effect on apoptosis was assessed by PI/annexin V staining. Results are reported as percentage of viable (PI−/annexin V−) cells.

The test system of data set [3] is myeloma cells of primary patient sample. The experiment in a line: Induction of apoptosis in primary patient sample. The class given is cell-based, human. Particulars: for apoptosis of myeloma cells: primary patient sample. The text has this: FIG. 8 depicts the apoptosis of myeloma cells induced by the compounds of the invention. Primary patient sample exposed to DMSO or compound (2a) (i.e., CRL 103142) or compound (2b) (i.e., CRL 130323) for 24 hr and indicated concentrations. LUQ-% viable myeloma cells and LLQ-% viable non-myeloma cells.
FIG. 9 depicts the apoptosis of myeloma cells induced by the compounds of the invention. Primary patient sample exposed to DMSO or compound (2a) (i.e., CRL 103142) or compound (2b) (i.e., CRL 130323) for 48 hr and indicated concentrations. LUQ-% viable myeloma cells and LLQ-% viable non-myeloma cells.
FIG. 10 depicts the apoptosis of myeloma cells induced by the compounds of the invention. Primary patient sample exposed to DMSO or compound (2a) (i.e., CRL 103142) or compound (2b) (i.e., CRL 130323) for 96 hr and indicated concentrations. LUQ-% viable myeloma cells and LLQ-% viable non-myeloma cells.
Primary patient sample exposed to DMSO or the compounds of the invention for 24 hours, 48 hours, and 96 hours and with a concentration of 0.4 μM, 0.6 μM, 1.2 μM, and 1.8 μM. LUQ-% viable myeloma cells and LLQ-% viable non-myeloma cells. The compounds of the invention included significant apoptosis of myeloma cells (FIGS. 8-10).

The test system of the next data set is normal cell line CHO. The experiment in a line: Myeloma-selective cytotoxicity (FIG. 11), CHO. The class given is cell-based, chinese hamster. The text has this:
(§1) All the above were active in the multiple myeloma cell line H929.

A further data set deals with normal cell line HEK293. The experiment in a line: Myeloma-selective cytotoxicity (FIG. 11), HEK293. The class given is cell-based, human.
Excerpt: as §1

Data set [4] relates to multiple myeloma cell line H929. The experiment in a line: Myeloma-selective cytotoxicity (FIG. 11), H929. The class given is cell-based, human.
Excerpt: as §1

A short description of data set [5]: Toxicity in animals, body weight (FIG. 13). The class given is in vivo. To be noted: highest doses tested.

T1 sequence (P08069 999-1274 limits assumed): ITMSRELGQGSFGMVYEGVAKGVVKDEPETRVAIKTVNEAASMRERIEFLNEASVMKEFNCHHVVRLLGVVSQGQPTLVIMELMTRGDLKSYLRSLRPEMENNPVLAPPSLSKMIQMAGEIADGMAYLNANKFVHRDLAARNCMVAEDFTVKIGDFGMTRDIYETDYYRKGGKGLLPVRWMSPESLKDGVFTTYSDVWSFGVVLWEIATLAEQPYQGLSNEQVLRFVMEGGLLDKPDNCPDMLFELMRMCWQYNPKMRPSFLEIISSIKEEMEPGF

On to `Cc1ccc(OC[C@H](O)CNc2cc[nH]c(=O)c2-c2nc3cc4c(cc3[nH]2)CN(C2CCN(C)CC2)C4=O)c(C)c1` [2a], for which the “IGF-1R potency in vitro” value on IGF1R tyrosine kinase is “same potency range as known preclinical compounds”. Also, the “effect on cell cycle (percentage of cells in G0-G1 or S phase)” value with human myeloma cell lines [1] is given as “induced significant G1 growth arrest”. The “effect on apoptosis (percentage of viable PI−/annexin V− cells)” value in the data set on human myeloma cell lines [2] is “induced significant apoptosis”. The “apoptosis of myeloma cells” value in data set [3] (24 hr), in data set [3] (48 hr) and in data set [3] (96 hr) was “induced significant apoptosis of myeloma cells” each time. Moreover, the “toxicity in normal cell line CHO” value with normal cell line CHO is reported as “demonstrated toxicity”. The “toxicity in normal cell line HEK293” value in the data set on normal cell line HEK293 was “demonstrated toxicity”. For the same compound, the “activity in multiple myeloma cell line H929” value in data set [4] was “active”.
Turning to `Cc1ccc(OC[C@H](O)CNc2cc[nH]c(=O)c2-c2nc3cc4c(cc3[nH]2)CN(C2CCN(CCS(C)(=O)=O)CC2)C4=O)c(C)c1` [2b], the results for the “IGF-1R potency in vitro” value at IGF1R tyrosine kinase and on IGF1R tyrosine kinase (listed as CRL130323) were “same potency range as known preclinical compounds” and “comparable IGF-1R potency”, respectively. In the data set on human myeloma cell lines [1], the “effect on cell cycle (percentage of cells in G0-G1 or S phase)” value is reported as “induced significant G1 growth arrest”. The “effect on apoptosis (percentage of viable PI−/annexin V− cells)” value in the data set with human myeloma cell lines [2] was “induced significant apoptosis”. Further, the “selectivity, viable myeloma cells versus viable non-myeloma cells” value in data set [3] (primary patient sample, 24, 48 and 96 hours) was “more selective”. The “apoptosis of myeloma cells” value in data set [3] (24 hr), in data set [3] (48 hr) and in data set [3] (96 hr) was “induced significant apoptosis of myeloma cells” in each case. Moreover, the “toxicity in normal cell line CHO” value with normal cell line CHO is on record as “did not demonstrate toxicity”. The “toxicity in normal cell line HEK293” value in the data set on normal cell line HEK293 is “did not demonstrate toxicity”. Further, the “activity in multiple myeloma cell line H929” value in data set [4] was “active”. In addition, the “selectivity towards multiple myeloma lines” value in data set [4] is on record as “highly selective”. Moreover, the entries for the “toxicity in animals (body weight)” value in data set [5] and in data set [5] (listed as CRL130323) were “no signs of toxicity” and “no observable toxicity”, respectively.
